{
  "source": "patent US5081112A",
  "about": "“Method for treating hyperlipidemia” (Otsuka Pharmaceutical Factory Inc., priority 1986, dated 1992)",
  "key": {"[1]": {"system": "plasma high density lipoprotein cholesterol (HDLC)", "assay": "increasing rate of plasma high density lipoprotein cholesterol (HDLC) concentration", "format": "in vivo, male Wistar rats", "conditions": "300 mg/kg/day oral for 2 days; rat; vs control", "procedure": "Increasing rate (%) of plasma high density lipoportein cholesterol (HDLC) concentration which is performed by a carboxamide compound of the general formula (I) of the present invention was conducted as follows.\nSeven-week-old male Wistar rats were used.\nThe test compound was orally administered for 2 days at a daily dose of 300 mg/kg body weight to each of six (6) rats in test group. The dosing vehicle was 0.5% sodium carboxylmethylcellulose solution, and the dosing volume was 5 ml/kg body weight.\nSimilar to the procedures taken to the rats in the test group, to each one of six (6) rats in control group was orally administered 0.5% sodium carboxymethylcelluose solution only.\nOn day 2, after fasting for 20 hours, blood was drawn from the jagular sinus with a heparinized syringe. Plasma was obtained by centrifugation.\nPlasma HDLC was determined after precipitation of other lipid fraction with heparin and Ca^2+ by using HDL-C Kit-N (manufactured by Hihon Shoji Kabushiki Kaisha).\nIncreasing rate (%) of plasma HDLC concentration performed by a test compound was calculated from the formula as follows: [formula]"}, "Wistar-strain male rats": {"system": "Wistar-strain male rats", "assay": "Acute toxicity test", "format": "in vivo", "conditions": "2 g/kg oral; rat", "description": "(§1) Each of carboxamide compounds represented by the formula (1), which is the active ingredient contained in pharmaceutical composition according to the present invention, was suspended in 5%-CMC-Na aqueous solution and administered orally to Wistar-strain male rats of 7 week age (one test group consisting of 6 rats) so as to observe the acute toxicity of each of the carboxamide compounds.\n(§2) Thus, LD50 value of Test compound No. 2 is considered to higher than […]. Thus, carboxamide compounds represented by the formula (1) according to the present invention can be said as quite safety compounds."}, "Acute toxicity test": {"assay": "Acute toxicity test", "format": "in vivo, Wistar-strain male rats", "conditions": "in vivo; oral; rat", "description": "as §1, §2"}, "[2]": {"system": "Triton WR-1339-induced hyperlipidemia in rat", "assay": "antilipotropic effect in Triton WR-1339-induced hyperlipidemia in rat", "format": "in vivo, Wistar-strain male rats", "conditions": "50 mg/kg oral, vs control", "description": "Wistar-strain male rats of 5-9 week age were used as test animals. One test group consisting of six (6) rats.\n[a] is a determined value obtained from the control group, and\n[b] is a determined value obtained from the test group)."}, "[3]": {"system": "Streptozotocin-induced diabetes in rat", "assay": "serum lipids lowering effect to Streptozotocin-induced diabetes in rat", "format": "in vivo, Wistar-strain male rats", "conditions": "4 hours after 25 mg/kg oral, Streptozocin 100 mg/kg tail vein", "procedure": "Test for determining serum lipids lowering effect to Streptozotocin-induceddiabetes in rat\nWistar-strain male rats of 7 week age were used as test animals. One test group consisting of six (6) rats. 100 Milligrams/kg of Streptozocin was administered to the tail vein of the test rat, then 4th day after the administration with Streptozocin, 25 mg/kg of each of the test compounds which was suspended in 0.5%-CMC-Na aqueous solution was orally administered to the rat. Similar to the test group, to each of six (6) rats in control group was administered with Streptozocin, and further orally administered with 0.5%-CMC-Na aqueous solution without containing each of the test compounds.\n4 Hours after the administration of each of the test compounds, the blood sample was taken from each of the test rats, and serum triglycerids was measured by using a test reagent of Triglyceride G-Test Wako (manufacturedby Wako Pure Chemicals, Co., Ltd.)."}, "[4]": {"system": "acyl-CoA:cholesterol acyltransferase (ACAT)", "assay": "inhibitory effect in the enzymatic activities of acyl-CoA:cholesterol acyltransferase (ACAT)", "format": "biochemical", "conditions": "head prints 10^14 M; rat liver microsomes; 2 min", "procedure": "Test for determining inhibitory effect in the enzymatic activities of acyl-CoA:cholesterol acyltranferase (ACAT)\n50 Microliters of each one of the test compounds was added to rat liver microsomes fraction (containing 0.4 mg of protein) of which volume was adjusted to 150 microliters by adding 0.15 M-potassium phosphate buffer solution (pH 7.4), then the mixture was incubated at 37° C. for 10 minutes. After the incubation, the reaction was started by adding 50 microliters of 0.15 M-potassium phosphate buffer solution (pH 7.4) containing 18 nM [1-^14 C] oleoyl-CoA (10 mCi/mM) and 0.6 mg BSA (bovine serum albumin) at 37° C. for 2 minutes. The reaction was terminated by adding 1 ml of ethanol, then 4 ml of n-hexane was added and shaken, then the n-hexane layer (upper layer) was concentrated to the volume of 3 ml under nitrogen gas stream, thus obtained cholesteryl oleate was isolated by means of a silica gel thin chromatography [developing solvent=petroleum ether: diethyl ether (95:5)] and the radioactivity was measured by using a liquid scintillation counter.\n(§3) Control test was also conducted by the procedures similar to those mentioned above in the test group, except that each one of the test compounds was not used.\nInhibitory effect in the enzymatic activities of acyl-CoA:cholesterol acyltransferase (ACAT) performed by each one of the test compounds was calculated, in terms of inhibitory ratio (%), from the formula on the basis of the radioactivity of the control group as follows: [formula] (wherein\n[e] is a radioactivity of the control group, and\n[f] is a radioactivity of the test group)."}, "[5]": {"system": "biosynthetic pathway of cholesterol", "assay": "inhibitory effect in biosynthetic pathway of cholesterol", "format": "biochemical", "conditions": "10^-4 M; rat liver microsomes and soluble fraction; 90 min, 100 µM", "procedure": "Test for determining inhibitory effect in biosynthetic pathway of cholesterol\nEach one of the test compounds was added to rat liver microsomes fraction (containing 0.2 mg of protein) and soluble fraction (containing 2 mg of protein), then the volume of the mixture was adjusted to 100 microliters by adding 0.1 M-potassium phosphate buffer solution (pH 7.4), then this mixture was incubated at 37° C. for 10 minutes.\nAfter the incubation, the reaction was started by adding 200 microliters of a solution containing 1 mM ATP, 10 mM glucose-1-phosphate, 6 mM glutathione, 6 mM MgCl2, […], 0.25 mM […], 0.25 mM NADP, and 1 mM [1-^14 C] sodium acetate (3.0 mCi/mM).\nThe whole mixture was incubated at 37° C. for 90 minutes, then the reaction was terminated by adding […] of 15%-KOH (a 95% ethanol solution), next 2 mg of cholesterol was added thereto, saponified at 75° C. for 1 hour, and cholesterol was extracted with petroleum ether, the extract was concentrated to dryness. To the residue thus obtained was added with 2.5 ml of a mixture of acetone-diethyl ether (1:1) and 2.5 ml of 1%-digitonin (a 50% ethanol solution), then this solution was allowed to stand for 1 hour in cooling condition by using ice-water to precipitate cholesterol. The precipitate was washed with acetone, a mixture of acetonediethyl ether (1:1) and diethyl ether in this order, then the radioactivity of the residue was measured by using a liquid scintillation counter.\nas §3\nInhibitory effect in biosynthetic pathway of cholesterol performed by each one of the test compounds was calculated, in terms of inhibitory ratio (%), from the formula on the basis of the radioactivity of the control group as follows: [formula] (wherein\n[c] is a radioactivity of the control group, and\n[d] is a radio activity of the test group)."}, "[6]": {"conditions": "large amount for a long period; animal test; cited from earlier work"}, "[7]": {"conditions": "24 hours after Triton WR-1339 (400 mg/kg, tail vein), read-out: lowering ratio of serum triglycerides, 24 hours after Triton WR-1339"}, "[8]": {"conditions": "24 hours after Triton WR-1339 (400 mg/kg, tail vein), read-out: lowering ratio of total serum cholesterol, 24 hours after Triton WR-1339"}, "[9]": {"conditions": "48 hours after Triton WR-1339 (400 mg/kg, tail vein), read-out: lowering ratio of serum triglycerides, 48 hours after Triton WR-1339"}, "[10]": {"conditions": "48 hours after Triton WR-1339 (400 mg/kg, tail vein), read-out: lowering ratio of total serum cholesterol, 48 hours after Triton WR-1339"}, "[11]": {"conditions": "24 hours after Triton WR-1339 (400 mg/kg, tail vein)"}, "[12]": {"conditions": "48 hours after Triton WR-1339 (400 mg/kg, tail vein)"}},
  "note": "Read-outs that look alike come from different tables or passages of the source.",
  "data": [
    {"compound": "CCOP(=O)(Cc1ccc(C(=O)Nc2ccc(C#N)cc2I)cc1)OCC", "note": "[compound 77]", "values": [
      {"measurement": "Increasing rate (%) of high density lipids concentration in the serum (plasma HDLC)", "setting": "[1]", "value": 184, "unit": "%"}
    ]},
    {"compound": "CCOP(=O)(Cc1ccc(C(=O)N(Cc2ccccc2)c2ccc(Cl)cc2)cc1)OCC", "note": "[Test compound No. 2]", "values": [
      {"measurement": "lethal cases", "setting": "Wistar-strain male rats", "value": "not any lathal case at all"},
      {"measurement": "LD50", "setting": "Acute toxicity test", "value": "> 2000", "unit": "mg/kg"}
    ]},
    {"compound": "CCOP(=O)(Cc1ccc(C(=O)Nc2ccc(Br)cc2C#N)cc1)OCC", "note": "[compound 71]", "values": [
      {"measurement": "Increasing rate (%) of high density lipids concentration in the serum (plasma HDLC)", "setting": "[1]", "value": 193, "unit": "%"}
    ]},
    {"compound": "CCOP(=O)(Cc1ccc(C(=O)Nc2ccc(Cl)cc2C#N)cc1)OCC", "note": "[compound 72]", "values": [
      {"measurement": "Increasing rate (%) of high density lipids concentration in the serum (plasma HDLC)", "setting": "[1]", "value": 196, "unit": "%"}
    ]},
    {"compound": "CCOP(=O)(Cc1ccc(C(=O)Nc2ccc(Br)cc2)cc1)OCC", "note": "[compound 8]", "values": [
      {"measurement": "inhibition in vivo at 50 mg/kg", "setting": "[2]; [7]", "value": 86.8, "unit": "%"},
      {"measurement": "inhibition in vivo at 50 mg/kg", "setting": "[2]; [8]", "value": 52.2, "unit": "%"},
      {"measurement": "inhibition in vivo at 50 mg/kg", "setting": "[2]; [9]", "value": 92.5, "unit": "%"},
      {"measurement": "inhibition in vivo at 50 mg/kg", "setting": "[2]; [10]", "value": 63.6, "unit": "%"},
      {"measurement": "Serum triglyceride", "setting": "[3]", "value": 471, "unit": "mg/dL"}
    ]},
    {"compound": "CCOP(=O)(Cc1ccc(C(=O)Nc2ccc(C#N)cc2Br)cc1)OCC", "note": "[compound 75]", "values": [
      {"measurement": "Increasing rate (%) of high density lipids concentration in the serum (plasma HDLC)", "setting": "[1]", "value": 222, "unit": "%"}
    ]},
    {"compound": "4-diethoxyphosphinoylmethyl-N-(4-bromo-2-cyanophenyl)benzamide [Test compound No. 71]", "values": [
      {"measurement": "Inhibitory effect to ACAT (inhibitory ratio), Table 5", "setting": "[4]", "value": 79.2, "unit": "%"},
      {"measurement": "lowering ratio of serum triglycerides, 24 hours after Triton WR-1339", "setting": "[2]; [11]", "value": 85.3, "unit": "%"},
      {"measurement": "lowering ratio of total serum cholesterol, 24 hours after Triton WR-1339", "setting": "[2]; [11]", "value": 51.6, "unit": "%"},
      {"measurement": "lowering ratio of serum triglycerides, 48 hours after Triton WR-1339", "setting": "[2]; [12]", "value": 95.9, "unit": "%"},
      {"measurement": "lowering ratio of total serum cholesterol, 48 hours after Triton WR-1339", "setting": "[2]; [12]", "value": 67.9, "unit": "%"},
      {"measurement": "Inhibitory ratio of cholesterol biosynthesis", "setting": "[5]", "value": 56.6, "unit": "%"}
    ]},
    {"compound": "CCOP(=O)(Cc1ccc(C(=O)Nc2ccc(Br)c(C#N)c2)cc1)OCC", "note": "[compound 76]", "values": [
      {"measurement": "Increasing rate (%) of high density lipids concentration in the serum (plasma HDLC)", "setting": "[1]", "value": 111, "unit": "%"}
    ]},
    {"compound": "CCOP(=O)(Cc1ccc(C(=O)Nc2ccc(I)cc2C#N)cc1)OCC", "note": "[compound 74]", "values": [
      {"measurement": "Increasing rate (%) of high density lipids concentration in the serum (plasma HDLC)", "setting": "[1]", "value": 187, "unit": "%"}
    ]},
    {"compound": "CCC(C)(Oc1ccc(C2(c3ccc(OC(C)(CC)C(=O)O)cc3)CCCCC2)cc1)C(=O)O", "note": "(centres unmarked) [Clinofibrate, reference compound]", "values": [
      {"measurement": "inhibition in vivo at 50 mg/kg", "setting": "[2]; [7]", "value": 13.6, "unit": "%"},
      {"measurement": "inhibition in vivo at 50 mg/kg", "setting": "[2]; [8]", "value": 9.8, "unit": "%"},
      {"measurement": "inhibition in vivo at 50 mg/kg", "setting": "[2]; [9]", "value": 1.1, "unit": "%"},
      {"measurement": "inhibition in vivo at 50 mg/kg", "setting": "[2]; [10]", "value": 1.9, "unit": "%"},
      {"measurement": "Serum triglyceride", "setting": "[3]", "value": "2,067 mg/dl"}
    ]},
    {"compound": "CCOC(=O)C(C)(C)Oc1ccc(Cl)cc1", "note": "[Clofibrate]", "values": [
      {"measurement": "formation of hepatic tumor", "setting": "[6]", "value": "the formation of hepatic tumor was observed"}
    ]},
    {"compound": "CCOP(=O)(Cc1ccc(C(=O)Nc2ccc(C#N)cc2Cl)cc1)OCC", "note": "[compound 73]", "values": [
      {"measurement": "Increasing rate (%) of high density lipids concentration in the serum (plasma HDLC)", "setting": "[1]", "value": 187, "unit": "%"}
    ]}
  ]
}
